1 compound from patent US9340556B2, “Antibacterial compounds” (GLAXO GROUP LIMITED, priority 2011, dated 2016) can be followed below.

The experiment in a line: Antimicrobial activity assay: whole-cell broth microdilution MIC (CLSI M7-A7). It counts as cell-based. Conditions: for at least one strain of one organism listed, serial two-fold dilutions 0.064 to 64 μg/ml, in the presence of 20 uM human apo-Transferrin, tested in at least one exemplified salt or free base form, read-out: MIC (minimum inhibitory concentration). The protocol: Antimicrobial Activity Assay
Whole-cell antimicrobial activity was determined by broth microdilution using the Clinical and Laboratory Standards Institute (CLSI) recommended procedure, Document M7-A7, “Methods for Dilution Susceptibility Tests for Bacteria that Grow Aerobically”. In some cases, broth microdilution MICs were determined using IsoSensitest broth (Oxoid) in place of CLSI recommended cation adjusted Mueller-Hinton broth. The compounds were tested in serial two-fold dilutions ranging from 0.064 to 64 μg/ml in the presence of 20 uM human apo-Transferrin (Sigma T-1147).
Compounds were evaluated against Gram-negative organisms selected from Escherichia coli, Pseudomonas aeruginosa, Proteus mirabilis, Enterobacter cloacae, Enterobacter aerogenes, Klebsiella pneumoniae, Stenotrophomonas maltophilia, Acinetobacter baumanii, Serratia marascens, Citrobacter freundii, and Klebsiella oxytoca.
The minimum inhibitory concentration (MIC) was determined as the lowest concentration of compound that inhibited visible growth. A mirror reader was used to assist in determining the MIC endpoint.
Each of the listed Examples 1 to 56 and 59 to 61 identified in the present application, were tested in at least one exemplified salt or free base form.
A general note: Dilution methods test growth across graded concentrations, often in twofold steps.

SMILES strings stand for the structures. Counter-ions that a name gives are not always drawn.

Turning to `Cn1cc(O)c(=O)c2cc(C[N+]3(CC4=C(C(=O)[O-])N5C(=O)[C@@H](NC(=O)/C(=N\O[C@@H](CC(=O)O)C(=O)O)c6csc(N)n6)[C@H]5SC4)CCCC3)ccc21` [Example 5, (6R,7R)-7-((Z)-2-(2-aminothiazol-4-yl)-2-(((S)-1,2-dicarboxyethoxy)imino)acetamido)-3-((1-((3-hydroxy-1-methyl-4-oxo-1,4-dihydroquinolin-6-yl)methyl)pyrrolidin-1-ium-1-yl)methyl)-8-oxo-5-thia-1-azabicyclo[4.2.0]oct-2-ene-2-carboxylate, 3 Sodium salt], the MIC was ≤ 8 µg/mL.
